From US9199985B2, “Compounds and methods for treatment of hypertension” (Medivation Technologies, Inc., priority 2011, dated 2015)

Details: conscious rabbits, intravenous, dose regimen identical to test compound; positive control
Method: Four adult New Zealand White rabbits of both sexes are chosen for these studies. […] The conscious rabbits are implanted with an intravenous catheter in marginal ear vein or by centrally by intracisternal catheter interfaced to a pressure transducer connected to a suitable recorder. To unveil peripheral effects of test compound, two sets of acute studies are conducted in rabbits. In the first set of studies, test compound is dosed to rabbit intravenously for a dose-response study with cumulative doses starting 0 (Ringer's Lock solution as a vehicle), 0.1, 0.3, 1, 3.2 and 10 mg/kg where each dose is tested on a separate day. A single intravenous bolus dose at 3 mg/kg is given and a time-course study is conducted in the second set of studies. Systolic, diastolic, mean and diastolic blood pressures are recorded in both the studies. Data collections are made for 3 hours in the second set of studies. Heart rate (HR) is derived electronically using an algorithm to determine HR from pulse interval. In a separate set of studies, Clonidine (positive control) is tested where all experimental procedures including dose-regimen are identical to that of the studies with test compound.

For `Clc1cccc(Cl)c1N=C1NCCN1` [Clonidine], which “maximum drop of arterial blood pressure” value is on record?
The value was −6 mmHg.
